By Km is commonly meant the substrate concentration at which the rate is half of its maximum. The kcat is the maximal rate divided by the concentration of active sites. In general, kcat/KM refers to the second-order rate constant that governs catalysis at low substrate concentration. Broadly, the kcat/Km is the second-order rate constant that governs catalysis at low substrate concentration.

The subject of one data set is avidin, native. Description: biotin binding rate, native avidin. The text has this:
(§1) Avidin: Avidin (Avi) is a tetrameric protein (homo-4-mer) that is approximately 66 kDa in its tetrameric form and is found in the egg whites of birds, reptiles, and amphibians. Its highly specific activity arises from binding strongly to biotin and this binding event is one of the strongest noncovalent interactions known, making avidin extremely useful for biochemical assays/probes and protein purification chemistries. Each sub-unit of avidin can bind to one biotin molecule. In agreement with CT and Lyz, the number of initiator modifications when using the positive initiator was less than that achieved with neutral initiator (4.3 versus 7.9). The activities of avidin samples were measured next using two different techniques (TABLE 6). Biotin binding rates were determined kinetically and total equilibrium biotin binding were determined spectophotometrically using 4′-hydroxyazobenzene-2-carboxylic acid (HABA) dye. Since the avidin-biotin binding is so strong, the displacement of HABA by biotin in the active site can be measured and the amount of bound biotin can be determined by the decrease in absorbance at 500 nm. The biotin binding rate of Avi-neutral initiator was decreased to 0.48 s^−1 from 105.2 s^−1 for native avidin.

In data set [1] the test system is avidin, positive initiator (+). Description: biotin binding rate, avidin-positive initiator.
Text: as §1

Data set [2] relates to avidin, neutral initiator (N)-pCBMA. Description: biotin binding rate, avidin (N)-pCBMA.
Text: as §1

Data set [3] relates to avidin, positive initiator (+)-pCBMA. Description: biotin binding rate, avidin (+)-pCBMA.
Text: as §1

The subject of data set [4] is Uricase from Candida sp., native. Nature of the data set: Michaelis-Menten kinetics, uric acid oxidation, native uricase. Format: biochemical. As to conditions: pH 8.5, 37° C. As to the method: (§2) CT and Lysozyme were used as received. AChE and Uricase were dialyzed in 25 mM sodium phosphate (pH 7.0) using a 25 kDa molecular weight cutoff dialysis tube in a refrigerator for 24 hours and then lyophilized. Copper (II) chloride, sodium ascorbate, 1,1,4,7,10,10-hexamethyltriethylenetetramine (HMTETA), 2-bromo-2-methylpropionyl bromide, 3-(dimethylamino)-1-propylamine, N,N′-diisopropylcarbodimine, fluorescamine, acetylthiocholine iodide, 5,5′-dithiobis(2-nitrobenzoic acid) (DTNB) were purchased from Sigma Aldrich. 4-bromobutyric acid and N-hydroxysuccinimide were purchased from TCI USA (Portland, OR). Micro BCA assay kit was purchased from Thermo Fisher Scientific.
(§3) Uricase: Uric acid (0-400 μL of 300 μM in 50 mM sodium tetraborate (pH 8.5)) was mixed with 50 mM sodium phosphate ([…], pH 8.5). Native, initiator and polymer conjugate solution (10 μL, 20 μM of Uricase) was added to the substrate solution. The initial rate was monitored by recording the decreasing in absorbance as 290 nm using an UV-VIS absorbance spectrometer with a temperature controlled cell folder at 37° C. Michaelis-Menten parameters were determined by nonlinear curve fitting of initial rate versus substrate concentration plots using Prism 7 software (GraphPad).

Data set [5] relates to Uricase from Candida sp., neutral initiator (N). Description: Michaelis-Menten kinetics, uric acid oxidation, uricase-neutral initiator. To be noted: pH 8.5, 37° C. It counts as biochemical. As for the experimental part:
as §2
(§4) Uricase: 200 μL of NHS-functionalized ATRP initiator solution in DMSO (100 μmol, 34 mg for neutral and 52 mg for positive initiator, respectively) was added to Uricase solution (20 mg of […] Uricase in 20 mL of 100 mM phosphate (pH 7.0)) and stirred at room temperature for 2 hours. Uricase-initiator conjugates were dialyzed in 25 mM sodium phosphate (pH 7.0) using a 25 kDa molecular cutoff dialysis tube in a refrigerator for 24 hours and then lyophilized. The concentration of Uricase initiator conjugates was determined using a Micro BCA Assay Kit (ThermoFisher Scientific).
as §3

Data set [6] concerns Uricase from Candida sp., positive initiator (+). Nature of the data set: Michaelis-Menten kinetics, uric acid oxidation, uricase-positive initiator. As to conditions: pH 8.5, 37° C. It counts as biochemical. As to the method: as §2, §4, §3
The test system of data set [7] is Uricase from Candida sp., neutral initiator (N)-pCBMA. Description: Michaelis-Menten kinetics, uric acid oxidation, uricase (N)-pCBMA. It counts as biochemical. To be noted: pH 8.5, 37° C. As to the method:
as §2
(§5) Uricase: 200 μL of NHS-functionalized ATRP initiator solution in DMSO (100 μmol, 34 mg for neutral and 52 mg for positive initiator, respectively) was added to Uricase solution (20 mg of […] Uricase in 20 mL of 100 mM phosphate (pH 7.0)) and stirred at room temperature for 2 hours. […] The concentration of Uricase initiator conjugates was determined using a Micro BCA Assay Kit (ThermoFisher Scientific).
(§6) CT-pCBMA and pSMA conjugate synthesis: A solution of monomer (230 mg for CBMA and 246 mg for SMA, 1.0 mmol respectively) and CT-initiator (23 mg for neutral and 25 mg for positive initiator, 10 μmol of initiator) in 100 mM sodium phosphate (20 mL, pH 7) was sealed and bubbled with nitrogen gas in an ice bath for 30 minutes. […] Conjugate CT content was determined by BCA assay as described elsewhere (Lee et al. 2005, supra). […]
(§7) Uricase: Uric acid (0-400 μL of 300 μM in 50 mM sodium tetraborate (pH 8.5)) was mixed with 50 mM sodium phosphate (990-580 μL, pH 8.5). […] The initial rate was monitored by recording the decreasing in absorbance as 290 nm using an UV-VIS absorbance spectrometer with a temperature controlled cell folder at 37° C. Michaelis-Menten parameters were determined by nonlinear curve fitting of initial rate versus substrate concentration plots using Prism 7 software (GraphPad).

For data set [8], the system named is Uricase from Candida sp., positive initiator (+)-pCBMA. Nature of the data set: Michaelis-Menten kinetics, uric acid oxidation, uricase (+)-pCBMA. Format: biochemical. As to conditions: pH 8.5, 37° C. As for the experimental part: as §2, §5, §6, §7
In data set [9] the test system is Uricase from Candida sp., neutral initiator (N)-pSMA. Nature of the data set: Michaelis-Menten kinetics, uric acid oxidation, uricase (N)-pSMA. It counts as biochemical. As to conditions: pH 8.5, 37° C. As for the experimental part: as §2, §5, §6, §7
The subject of data set [10] is Uricase from Candida sp., positive initiator (+)-pSMA. Nature of the data set: Michaelis-Menten kinetics, uric acid oxidation, uricase (+)-pSMA. Format: biochemical. To be noted: pH 8.5, 37° C. As for the experimental part:
as §2, §5, §6, §7

Data set [11] has as its system T1, C[C@H](NC(=O)CCC(=O)O)C(=O)N[C@@H](C)C(=O)N1CCC[C@H]1C(=O)N[C@@H](Cc1ccccc1)C(=O)Nc1ccc([N+](=O)[O-])cc1.
T1 construct: mature A, B and C chains of chymotrypsinogen A; unmodified
Nature of the data set: Michaelis-Menten kinetics, Suc-AAPF-pNA hydrolysis, native CT. To be noted: other: pH 8, 37° C. Format: biochemical, bovine. As for the experimental part: as §2
CT: N-succinyl-Ala-Ala-Pro-Phe-p-nitroanilide (Suc-AAPF-pNA; SEQ ID NO:1) was used as a substrate for CT. Substrate (0-20 mg/mL in DMSO, 30 μL) was added to a 1.5 mL cuvette with sodium phosphate buffer (pH 8, 100 mM). Native CT, CT-initiators, and CT-polymers (0.1 mg/mL protein, 4 μM, 10 μL) was added to the cuvette with substrate and buffer. The initial substrate hydrolysis rate was measured in triplicate by recording the increase in absorbance at 412 nm over the first 60 seconds after mixing using a Lambda 2 Perkin Elmer ultraviolet-visible spectrometer equipped with a temperature-controlled cell holder at 37° C. Michaelis-Menten parameters were determined using nonlinear curve fitting of initial hydrolysis rate versus substrate concentration in GraphPad.
Michaelis-Menten kinetics were measured at pH 8 and 37° C. using Succinyl-Ala-Ala-Pro-Phe-p-nitroanilide (Suc-AAPF-pNA; SEQ ID NO:1), a hydrophobic and negatively charged substrate for CT that binds to the hydrophobic S1 binding pocket and is then cleaved by the catalytic triad (Ser 195, His 57, Asp 102). […] The observed decrease in KM upon neutral initiator attachment could have been the result of the hydrophobicity of the initiator. The partition coefficient (log D) of a lysine side chain at pH 8.0 is −1.00. After covalent attachment of the neutral initiator, the log D value of the new product rose to 1.82. […]

Regarding `O=C(O)CCCC[C@@H]1SC[C@@H]2NC(=O)N[C@@H]21` [biotin], the biotin binding rate worked out at 92.5 ± 14.1 s⁻¹ with avidin, native; 1.69 ± 0.04 s⁻¹ in data set [1] (avidin (+)); 0.23 ± 0.07 s⁻¹ in data set [2]; 1.64 ± 0.08 s⁻¹ in [3]. In addition, the “increase in biotin binding rate compared to Avi-neutral initiator” value in data set [1] (Avi-positive initiator vs Avi-neutral initiator) is 1.7 fold.
For the molecule `O=c1[nH]c(=O)c2[nH]c(=O)[nH]c2[nH]1` [uric acid], the Km is 12.9 ± 0.6 µM in [4], 119 ± 9.7 µM in data set [5], 25.4 ± 1.4 µM in data set [6] and 22 ± 7.6 µM in [8]. Also, the kcat in data set [4] was 3.42 ± 0.05 s⁻¹; in data set [5] it was 0.18 ± 0.01 s⁻¹; in data set [6], 2.14 ± 0.04 s⁻¹; in [7], “undetectable”; in data set [8] it was 0.03 ± 0.003 s⁻¹; in [9], “undetectable”. Further, the kcat entry in data set [10] is on record as “undetectable”. For the same molecule, the kcat/KM in data set [4] was 266000 ± 13000 M⁻¹ s⁻¹; in data set [5], 2000 ± 600 M⁻¹ s⁻¹; in data set [6] it was 84000 ± 5000 M⁻¹ s⁻¹; in [7] it was “undetectable”; in data set [8], 1000 ± 500 M⁻¹ s⁻¹; in [9], “undetectable”. Also, the kcat/KM result in data set [10] was “undetectable”. Moreover, the KM entry in [7], in data set [9] and in data set [10] was “undetectable” throughout.
For the molecule “α-chymotrypsin (CT) from bovine pancreas (type II), native (Bos taurus)”, in [11], the Km is 107 ± 5 µM, the kcat was found to be 26.6 ± 0.3 s⁻¹ and the kcat/Km worked out at 250000 ± 10000 M⁻¹ s⁻¹.

These data come from patent US12053529B2, “Amino-reactive positively charged ATRP initiators that maintain their positive charge during synthesis of biomacro-initiators” (Carnegie Mellon University, priority 2018, dated 2024).
